Source: the NIST ThermoML archive (doi:10.1007/s10765-010-0768-y)

Assay: xn = mol fraction of the nth substance listed
Settings: 101 kPa, Liquid, Pycnometric method

C=CC(=O)OCCCC [butyl 2-propenoate] + Cc1ccccc1C
mass density [kg/m3]
Settings	288.15 K	293.15 K	298.15 K	303.15 K	308.15 K	313.15 K	318.15 K
x1 = 0.0685	885.81	881.5	877.19	872.88	868.57	864.26	859.95
x1 = 0.1306	887.32	882.97	878.62	874.27	869.92	865.57	861.22
x1 = 0.2018	889	884.6	880.2	875.8	871.41	867.02	862.63
x1 = 0.2738	890.63	886.19	881.75	877.31	872.87	868.44	864.01
x1 = 0.3654	892.61	888.12	883.63	879.14	874.65	870.17	865.69
x1 = 0.4331	894.01	889.49	884.97	880.45	875.93	871.41	866.89
x1 = 0.5072	895.49	890.93	886.37	881.81	877.25	872.7	868.14
x1 = 0.589	897.05	892.45	887.85	883.25	878.65	874.06	869.47
x1 = 0.6522	898.2	893.57	888.94	884.31	879.68	875.06	870.44
x1 = 0.7283	899.51	894.85	890.19	885.53	880.87	876.21	871.55
x1 = 0.7924	900.56	895.87	891.18	886.49	881.8	877.12	872.44
x1 = 0.8587	901.6	896.88	892.16	887.45	882.74	878.03	873.32
x1 = 0.9298	902.64	897.9	893.16	888.42	883.69	878.96	874.23
x1 = 1	903.6	898.85	894.1	889.35	884.6	879.85	875.1
